Results reported in US9677045B2, “Microorganisms and methods for production of 4-hydroxybutyrate, 1,4-butanediol and related compounds” (priority 2012, dated 2017).

Assays:
Alcohol dehydrogenase = Alcohol dehydrogenase (ADH) assay in the reductive direction, cell extracts; settings: extracts of MG1655 lacI^Q with pZA33
Experimental: (§1) In Vitro Enzyme Assays. To obtain crude extracts for activity assays, cells were harvested by centrifugation at 4,500 rpm (Beckman-Coulter, Allegera X-15R) for 10 min. The pellets were resuspended in 0.3 mL BugBuster (Novagen) reagent with benzonase and lysozyme, and lysis proceeded for 15 minutes at room temperature with gentle shaking. Cell-free lysate was obtained by centrifugation at 14,000 rpm (Eppendorf centrifuge 5402) for 30 min at 4° C. Cell protein in the sample was determined using the method of Bradford et al., Anal. Biochem. 72:248-254 (1976), and specific enzyme assays conducted as described below. Activities are reported in Units/mg protein, where a unit of activity is defined as the amount of enzyme required to convert 1 mmol of substrate in 1 min. at room temperature. In general, reported values are averages of at least 3 replicate assays.
(§2) Alcohol (ADH) and aldehyde (ALD) dehydrogenase was assayed in the reductive direction using a procedure adapted from several literature sources (Durre et al., FEMS Microbiol. Rev. 17:251-262 (1995); Palosaari and Rogers, J. Bacteriol. 170:2971-2976 (1988) and Welch et al., Arch. Biochem. Biophys. 273:309-318 (1989). The oxidation of NADH is followed by reading absorbance at 340 nm every four seconds for a total of 240 seconds at room temperature. The reductive assays were performed in 100 mM MOPS (adjusted to pH 7.5 with KOH), 0.4 mM NADH, and from 1 to 50 μl of cell extract. The reaction is started by adding the following reagents: 100 μl of 100 mM acetaldehyde or butyraldehyde for ADH, or 100 μl of 1 mM acetyl-CoA or butyryl-CoA for ALD. The Spectrophotometer is quickly blanked and then the kinetic read is started. The resulting slope of the reduction in absorbance at 340 nm per minute, along with the molar extinction coefficient of NAD(P)H at 340 nM (6000) and the protein concentration of the extract, can be used to determine the specific activity.
(§3) Gene candidates for the 4-HB to BDO conversion pathway were next tested for activity when expressed in the E. coli host MG1655 lacI^Q. Recombinant strains containing each gene candidate expressed on pZA33 were grown in the presence of 0.25 mM IPTG for four hours at 37° C. to fully induce expression of the enzyme. Four hours after induction, cells were harvested and assayed for ADH and ALD activity as described above.

Aldehyde dehydrogenase = Aldehyde dehydrogenase (ALD) assay in the reductive direction, cell extracts; settings: extracts of MG1655 lacI^Q with pZA33
Experimental: as §1, §2, §3

homoserine kinase = homoserine kinase (Escherichia coli, UniProt P00547); settings: cited from earlier work; for % kcat: relative to L-homoserine
homoserine kinase, sequence (P00547 whole entry): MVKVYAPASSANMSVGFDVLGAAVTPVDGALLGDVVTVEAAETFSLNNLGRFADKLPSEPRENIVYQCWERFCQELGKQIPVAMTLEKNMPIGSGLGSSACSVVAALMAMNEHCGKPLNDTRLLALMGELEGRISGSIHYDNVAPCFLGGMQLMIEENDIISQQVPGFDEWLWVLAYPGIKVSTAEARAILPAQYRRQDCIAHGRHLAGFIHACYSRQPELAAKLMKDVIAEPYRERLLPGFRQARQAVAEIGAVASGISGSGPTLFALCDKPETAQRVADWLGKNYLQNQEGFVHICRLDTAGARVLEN

[1] = system: aminotransferase from Leishmania mexicana; settings: activity considered 100% on tyrosine; enzyme expressed in E. coli; cited from earlier work
[2] = system: 4-HB to BDO conversion pathway; assay: Production of BDO from 10 mM 4-HB in recombinant E. coli strains
Experimental: For the BDO production experiments, cat2 from Porphyromonas gingivalis W83 (gene 0034) was included on pZA33 for the conversion of 4-HB to 4-HB-CoA, while the candidate dehydrogenase genes were expressed on pZE13. The host strain was MG1655 lacI^Q. Along with the alcohol and aldehyde dehydrogenase candidates, we also tested the ability of CoA-dependent succinic semialdehyde dehydrogenases (sucD) to function in this step, due to the similarity of the substrates. Cells were grown to an OD of about 0.5 in LB medium supplemented with 10 mM 4-HB, induced with 1 mM IPTG, and culture broth samples taken after 24 hours and analyzed for BDO as described below.
Finally, the construct was tested for participation in the conversion of 4-HB to BDO. Host strains were transformed with the pZA33-0020-0021 construct described and pZE13-0002, and compared to use of cat2 in BDO production using the aerobic procedure used above in FIG. 5.

With “0011: Gene ID 0011: adhE, E. coli, Aldehyde/alcohol dehydrogenase [Sample 0011]” the Alcohol dehydrogenase activity (Alcohol dehydrogenase; Substrate Acetaldehyde) was 0.0093 μmol min^−1 mg cell protein^−1, the Alcohol dehydrogenase activity (Alcohol dehydrogenase; Substrate Butyraldehyde) was 0.0265 μmol min^−1 mg cell protein^−1 and the Aldehyde dehydrogenase activity (Aldehyde dehydrogenase; Substrate Acetyl-CoA) was 0.0095 μmol min^−1 mg cell protein^−1. For the same molecule, the Aldehyde dehydrogenase activity (Aldehyde dehydrogenase; Substrate Butyryl-CoA) was 0.0069 μmol min^−1 mg cell protein^−1.

For `N[C@H](CCO)C(=O)O` [D-homoserine], the kcat (homoserine kinase) is listed as 8.3 ± 1.1 and the “% kcat” value (homoserine kinase) is listed as 32%.

For `N[C@H](CO)CCO` [L-2-amino-1,4-butanediol], the kcat (homoserine kinase) is given as 2.0 ± 0.5 and the “% kcat” value (homoserine kinase) is given as 7.9%.

For `N[C@@H](CCCO)C(=O)O` [L-2-amino-5-hydroxyvalerate], the kcat (homoserine kinase) is given as 2.5 ± 0.4 and the “% kcat” value (homoserine kinase) is given as 9.9%.

For `N[C@@H](CC=O)C(=O)O` [L-aspartate β-semialdehyde], the kcat (homoserine kinase) is given as 2.1 ± 0.1 and the “% kcat” value (homoserine kinase) is given as 8.2%.

In the case of `CCOC(=O)[C@@H](N)CCO` [L-homoserine ethyl ester], the kcat (homoserine kinase) is listed as 13.6 ± 0.8 and the “% kcat” value (homoserine kinase) is listed as 74%.

For `CC(C)COC(=O)[C@@H](N)CCO` [L-homoserine isobutyl ester], the kcat (homoserine kinase) is given as 16.4 ± 0.8 and the “% kcat” value (homoserine kinase) is given as 84%.

In the case of `CC(C)OC(=O)[C@@H](N)CCO` [L-homoserine isopropyl ester], the kcat (homoserine kinase) is given as 13.6 ± 1.4 and the “% kcat” value (homoserine kinase) is given as 74%.

In the case of `COC(=O)[C@@H](N)CCO` [L-homoserine methyl ester], the kcat (homoserine kinase) is given as 14.7 ± 2.6 and the “% kcat” value (homoserine kinase) is given as 80%.

In the case of `CCCOC(=O)[C@@H](N)CCO` [L-homoserine n-propyl ester], the kcat (homoserine kinase) is given as 14.0 ± 0.4 and the “% kcat” value (homoserine kinase) is given as 76%.

In the case of `N[C@@H](CCO)C(=O)O` [L-homoserine], the kcat (homoserine kinase) is listed as 18.3 ± 0.1 and the “% kcat” value (homoserine kinase) is listed as 100%.

For `CCCCOC(=O)[C@@H](N)CCO` [L-homserine n-butyl ester], the kcat (homoserine kinase) is given as 29.1 ± 1.2 and the “% kcat” value (homoserine kinase) is given as 160%.

For `CC(C)C[C@H](N)C(=O)O` [leucine], the “activity relative to tyrosine” value [1] is listed as 25%.

In the case of `CSCC[C@H](N)C(=O)O` [methionine], the “activity relative to tyrosine” value [1] is listed as 25%.

In the case of `N[C@@H](Cc1ccccc1)C(=O)O` [phenylalanine], the “activity relative to tyrosine” value [1] is given as 90%.

For `N[C@@H](Cc1c[nH]c2ccccc12)C(=O)O` [tryptophan], the “activity relative to tyrosine” value [1] is given as 85%.

In the case of `N[C@@H](Cc1ccc(O)cc1)C(=O)O` [tyrosine], the “activity relative to tyrosine” value [1] is given as 100%.

B1: 0026: Gene ID 0026: bdhA, Clostridium acetobutylicum ATCC 824, Butanol dehydrogenase (protein, UniProt Q04944 1-389, looked up)
NADH-dependent butanol …: MLSFDYSIPTKVFFGKGKIDVIGEEIKKYGSRVLIVYGGGSIKRNGIYDRATAILKENNIAFYELSGVEPNPRITTVKKGIEICRENNVDLVLAIGGGSAIDCSKVIAAGVYYDGDTWDMVKDPSKITKVLPIASILTLSATGSEMDQIAVISNMETNEKLGVGHDDMRPKFSVLDPTYTFTVPKNQTAAGTADIMSHTFESYFSGVEGAYVQDGIAEAILRTCIKYGKIAMEKTDDYEARANLMWASSLAINGLLSLGKDRKWSCHPMEHELSAYYDITHGVGLAILTPNWMEYILNDDTLHKFVSYGINVWGIDKNKDNYEIAREAIKNTREYFNSLGIPSKLREVGIGKDKLELMAKQAVRNSGGTIGSLRPINAEDVLEIFKKSY
In the case of B1, the Alcohol dehydrogenase activity (Alcohol dehydrogenase; Substrate Acetaldehyde) is reported as 0.0008 μmol min^−1 mg cell protein^−1, the Alcohol dehydrogenase activity (Alcohol dehydrogenase; Substrate Butyraldehyde) is reported as 0.0024 μmol min^−1 mg cell protein^−1 and the Aldehyde dehydrogenase activity (Aldehyde dehydrogenase; Substrate Acetyl-CoA) is reported as 0.0005 μmol min^−1 mg cell protein^−1. The Aldehyde dehydrogenase activity (Aldehyde dehydrogenase; Substrate Butyryl-CoA) was 0 μmol min^−1 mg cell protein^−1.

B2: 0002: Gene ID 0002: adhE, Clostridium acetobutylicum ATCC 824, Aldehyde/alcohol dehydrogenase (protein, UniProt P33744 1-862, looked up)
Aldehyde-alcohol dehydrogenase: MKVTTVKELDEKLKVIKEAQKKFSCYSQEMVDEIFRNAAMAAIDARIELAKAAVLETGMGLVEDKVIKNHFAGEYIYNKYKDEKTCGIIERNEPYGITKIAEPIGVVAAIIPVTNPTSTTIFKSLISLKTRNGIFFSPHPRAKKSTILAAKTILDAAVKSGAPENIIGWIDEPSIELTQYLMQKADITLATGGPSLVKSAYSSGKPAIGVGPGNTPVIIDESAHIKMAVSSIILSKTYDNGVICASEQSVIVLKSIYNKVKDEFQERGAYIIKKNELDKVREVIFKDGSVNPKIVGQSAYTIAAMAGIKVPKTTRILIGEVTSLGEEEPFAHEKLSPVLAMYEADNFDDALKKAVTLINLGGLGHTSGIYADEIKARDKIDRFSSAMKTVRTFVNIPTSQGASGDLYNFRIPPSFTLGCGFWGGNSVSENVGPKHLLNIKTVAERRENMLWFRVPHKVYFKFGCLQFALKDLKDLKKKRAFIVTDSDPYNLNYVDSIIKILEHLDIDFKVFNKVGREADLKTIKKATEEMSSFMPDTIIALGGTPEMSSAKLMWVLYEHPEVKFEDLAIKFMDIRKRIYTFPKLGKKAMLVAITTSAGSGSEVTPFALVTDNNTGNKYMLADYEMTPNMAIVDAELMMKMPKGLTAYSGIDALVNSIEAYTSVYASEYTNGLALEAIRLIFKYLPEAYKNGRTNEKAREKMAHASTMAGMASANAFLGLCHSMAIKLSSEHNIPSGIANALLIEEVIKFNAVDNPVKQAPCPQYKYPNTIFRYARIADYIKLGGNTDEEKVDLLINKIHELKKALNIPTSIKDAGVLEENFYSSLDRISELALDDQCTGANPRFPLTSEIKEMYINCFKKQP
With B2 the Alcohol dehydrogenase activity (Alcohol dehydrogenase; Substrate Acetaldehyde) was 0.0247 μmol min^−1 mg cell protein^−1, the Alcohol dehydrogenase activity (Alcohol dehydrogenase; Substrate Butyraldehyde) was 0.0264 μmol min^−1 mg cell protein^−1 and the BDO/OD ([2]; Aerobic) was 15.2. It also gave a BDO ([2]; Aerobic, 10 mM 4-HB, 24 hours, cat2 (0034) on pZA33) of 138.3 µM, a BDO/OD ([2]; Anaerobic) of 40.5 and a BDO ([2]; Anaerobic, 10 mM 4-HB, 24 hours, cat2 (0034) on pZA33) of 54.7 µM. The BDO/OD ([2]; Microaerobic) was 8.73, the BDO ([2]; Microaerobic, 10 mM 4-HB, 24 hours, cat2 (0034) on pZA33) was 48.2 µM and the Aldehyde dehydrogenase activity (Aldehyde dehydrogenase; Substrate Acetyl-CoA) was 0.0046 μmol min^−1 mg cell protein^−1. The Aldehyde dehydrogenase activity (Aldehyde dehydrogenase; Substrate Butyryl-CoA) was 0.0076 μmol min^−1 mg cell protein^−1.

B3: 0013: Gene ID 0013: bdhB, Clostridium acetobutylicum ATCC 824, Butanol dehydrogenase II (protein, UniProt Q04945 1-390, looked up)
NADH-dependent butanol …: MVDFEYSIPTRIFFGKDKINVLGRELKKYGSKVLIVYGGGSIKRNGIYDKAVSILEKNSIKFYELAGVEPNPRVTTVEKGVKICRENGVEVVLAIGGGSAIDCAKVIAAACEYDGNPWDIVLDGSKIKRVLPIASILTIAATGSEMDTWAVINNMDTNEKLIAAHPDMAPKFSILDPTYTYTVPTNQTAAGTADIMSHIFEVYFSNTKTAYLQDRMAEALLRTCIKYGGIALEKPDDYEARANLMWASSLAINGLLTYGKDTNWSVHLMEHELSAYYDITHGVGLAILTPNWMEYILNNDTVYKFVEYGVNVWGIDKEKNHYDIAHQAIQKTRDYFVNVLGLPSRLRDVGIEEEKLDIMAKESVKLTGGTIGNLRPVNASEVLQIFKKSV
With B3 the Alcohol dehydrogenase activity (Alcohol dehydrogenase; Substrate Acetaldehyde) was 0.0142 μmol min^−1 mg cell protein^−1 and the Alcohol dehydrogenase activity (Alcohol dehydrogenase; Substrate Butyraldehyde) was 0.0130 μmol min^−1 mg cell protein^−1.

B4: 0034: Gene ID 0034: cat2, Porphyromonas gingivalis W83, 4-hydroxybutyrate coenzyme A transferase (protein, listed as Porphyromonas gingivalis)
chain: MKDVLAEYASRIVSAEEAVKHIKNGERVALSHAAGVPQSCVDALVQQADLFQNVEIYHMLCLGEGKYMAPEMAPHFRHITNFVGGNSRKAVEENRADFIPVFFYEVPSMIRKDILHIDVAIVQLSMPDENGYCSFGVSCDYSKPAAESAHLVIGEINRQMPYVHGDNLIHISKLDYIVMADYPIYSLAKPKIGEVEEAIGRNCAELIEDGATLQLGIGAIPDAALLFLKDKKDLGIHTEMFSDGVVELVRSGVITGKKKTLHPGKMVATFLMGSEDVYHFIDKNPDVELYPVDYVNDPRVIAQNDNMVSINSCIEIDLMGQVVSECIGSKQFSGTGGQVDYVRGAAWSKNGKSIMAIPSTAKNGTASRIVPIIAEGAAVTTLRNEVDYVVTEYGIAQLKGKSLRQRAEALIAIAHPDFREELTKHLRKRFG
B4 showed a BDO/OD ([2]; Host MG1655 lacI^Q) of 0.042, a BDO ([2]; Host MG1655 lacI^Q, adhE2 in pZE13, aerobic procedure) of 0.827 µM and a BDO/OD ([2]; Host MG1655 ΔadhE lacI^Q) of 0.166. The BDO ([2]; Host MG1655 ΔadhE lacI^Q, adhE2 in pZE13, aerobic procedure) was 2.084 µM.
